Converted amounts (≈) assume the structure as drawn. Like-named read-outs stand apart in the source and are kept apart here. Where a SMILES comes first, the peptide text is derived from it.
Tests used:
A. baumannii #5 = assay type: cell-based, Acinetobacter baumannii
Excerpt: (§1) To compare the antimicrobial activity among the peptides produced by the method of Example 1, the inventors of the present invention measured the minimal growth inhibitory concentration (MIC), which is minimum concentration of the peptide not allowing any […] of bacterial cells.
(§2) Specifically, the bacterial strains described in the following Table 2 were purchased and cultured to a mid-log phase in MHB (Mueller Hinton Broth) medium. Then, after dilution to bacterial cell concentration of 2×10^5 cells/50 μl, the cells were inoculated to a microtiter plate (NUNC, USA). Thereafter, LL37-1, LL37-2, LL37-3 or LL37-4 peptide which has been synthesized in Example 1 above was subjected to serial dilution, ½ times for each, in a 96-well plate. After adding the peptides in an amount of 50 μl to the cell plate, the cells were cultured for 18 hours at 37° C. By using a microtiter plate reader (Merck Elisa reader, Germany), the absorbance was measured at a wavelength of 600 nm to determine the MIC value of each bacterial strain. As a control group, LL37 as a mother peptide was used and subjected to the same process as above to determine the MIC value of each strain.

A. baumannii #9 = assay type: cell-based, Acinetobacter baumannii
Excerpt: as §1, §2

A. baumannii #10 = assay type: cell-based, Acinetobacter baumannii
Excerpt: as §1, §2

A. baumannii #3 = assay type: cell-based, Acinetobacter baumannii
Excerpt: as §1, §2

A. baumannii #11 = assay type: cell-based, Acinetobacter baumannii
Excerpt: as §1, §2

A. baumannii #4 = assay type: cell-based, Acinetobacter baumannii
Excerpt: as §1, §2

A. baumannii #19 = assay type: cell-based, Acinetobacter baumannii
Excerpt: as §1, §2

A. baumannii #8 = assay type: cell-based, Acinetobacter baumannii
Excerpt: as §1, §2

A. baumannii #13 = assay type: cell-based, Acinetobacter baumannii
Excerpt: as §1, §2

A. baumannii KCTC 2508 = assay type: cell-based, Acinetobacter baumannii
Excerpt: as §1, §2

A. baumannii #12 = assay type: cell-based, Acinetobacter baumannii
Excerpt: as §1, §2

A. baumannii #2 = assay type: cell-based, Acinetobacter baumannii
Excerpt: as §1, §2

[1] = Cytotoxicity in normal cell line (MTT); assay type: cell-based, human; details: human
Protocol: To determine the cytotoxicity of the peptides produced by the method of Example 1 in normal cell line, cytotoxicity was measured by using normal human keratinocyte cell line (HaCaT) and normal human fibroblast cell line (Hs27).
Specifically, normal human keratinocyte (HaCaT) cells and normal human fibroblast (Hs27) cells, which have been cultured in DMEM medium containing 10% FBS (fetal bovine serum), were aliquoted in a microtiter plate to have 1×10^4 cells per well. After culturing them for 24 hours, the cells were subjected to a treatment with LL37, LL37-1, LL37-2, LL37-3 or LL37-4 peptide, each at concentration of 0.5, 1, 2, 4, 8, 16 or 32 μM/well, followed by reaction for 24 hours in a 5% CO2 incubator. After culture, a reaction solution containing 5 mg/ml MTT (Thiazolyl Blue Tetrazolium Bromide) dissolved in phosphate buffered saline (PBS) was added in an amount of 10 μl to each well and the reaction was allowed to occur for 1 hour. After that, the supernatant was discarded, and, by dissolving MTT crystals that are formed by adding 200 μl DMSO (dimethyl sulfoxide), the absorbance at 570 nm was measured to determine the cell survival ability.

E. coli ATCC 25922 = assay type: cell-based, Escherichia coli
Excerpt: as §1, §2

P. aeruginosa ATCC 27853 = assay type: cell-based, Pseudomonas aeruginosa
Excerpt: as §1, §2

Compound CC[C@H](C)[C@H](NC(=O)[C@H](CCCNC(=N)N)NC(=O)[C@H](CCC(N)=O)NC(=O)[C@@H](NC(=O)[C@@H](NC(=O)[C@H](CCCNC(=N)N)NC(=O)[C@H](CCCCN)NC(=O)[C@H](Cc1ccccc1)NC(=O)[C@H](CCCCN)NC(=O)[C@@H](N)CCCCN)[C@@H](C)CC)C(C)C)C(=O)N[C@@H](CCCCN)C(=O)N[C@@H](CC(=O)O)C(=O)N[C@@H](Cc1ccccc1)C(=O)N[C@@H](CC(C)C)C(=O)N[C@@H](CCCNC(=N)N)C(=O)N[C@@H](CC(N)=O)C(N)=O [LL37-2, KKFKRIVQRIKDFLRN-NH2] (H-KKFKRIVQRIKDFLRN-NH2) has a Minimal inhibitory concentration (A. baumannii #5; A. baumannii #5, tolerance to antibiotics) of 2 µM (≈ 4.18 µg/mL), a Minimal inhibitory concentration (A. baumannii #9; A. baumannii #9, tolerance to antibiotics) of 2 µM (≈ 4.18 µg/mL) and a Minimal inhibitory concentration (A. baumannii #10; A. baumannii #10, tolerance to antibiotics) of 2 µM (≈ 4.18 µg/mL). The Minimal inhibitory concentration (A. baumannii #3; A. baumannii #3, tolerance to antibiotics) was 2 µM (≈ 4.18 µg/mL), the Minimal inhibitory concentration (A. baumannii #11; A. baumannii #11, tolerance to antibiotics) was 2 µM (≈ 4.18 µg/mL) and the Minimal inhibitory concentration (A. baumannii #4; A. baumannii #4, tolerance to antibiotics) was 2 µM (≈ 4.18 µg/mL). It also gave a Minimal inhibitory concentration (A. baumannii #19; A. baumannii #19, tolerance to antibiotics) of 2 µM (≈ 4.18 µg/mL), a Minimal inhibitory concentration (A. baumannii #8; A. baumannii #8, tolerance to antibiotics) of 2 µM (≈ 4.18 µg/mL) and a Minimal inhibitory concentration (A. baumannii #13; A. baumannii #13, tolerance to antibiotics) of 2 µM (≈ 4.18 µg/mL). The “Minimal inhibitory concentration of antimicrobial peptide” value (A. baumannii KCTC 2508; A. baumannii KCTC 2508, Control (MIC values of Table 3, no added ions)) was 4 µM, the Minimal inhibitory concentration (A. baumannii KCTC 2508; A. baumannii KCTC 2508, MHB, 18 hours at 37° C.) was 4 µM (≈ 8.35 µg/mL) and the Minimal inhibitory concentration (A. baumannii #12; A. baumannii #12, tolerance to antibiotics) was 2 µM (≈ 4.18 µg/mL). The Minimal inhibitory concentration (A. baumannii #2; A. baumannii #2, tolerance to antibiotics) was 2 µM (≈ 4.18 µg/mL), the viability at 24 h, 0.5 µM ([1]; HaCaT keratinocyte cells, HaCaT, peptide 0.5 μM, 24 hours, MTT, read-out: Cell survival ability) was 100% and the viability at 24 h, 1 µM ([1]; HaCaT keratinocyte cells, HaCaT, peptide 1 μM, 24 hours, MTT, read-out: Cell survival ability) was 106%. The viability at 24 h, 2 µM ([1]; HaCaT keratinocyte cells, HaCaT, peptide 2 μM, 24 hours, MTT, read-out: Cell survival ability) was 104%, the viability at 24 h, 4 µM ([1]; HaCaT keratinocyte cells, HaCaT, peptide 4 μM, 24 hours, MTT, read-out: Cell survival ability) was 102% and the viability at 24 h, 8 µM ([1]; HaCaT keratinocyte cells, HaCaT, peptide 8 μM, 24 hours, MTT, read-out: Cell survival ability) was 101%. It also gave a viability at 24 h, 16 µM ([1]; HaCaT keratinocyte cells, HaCaT, peptide 16 μM, 24 hours, MTT, read-out: Cell survival ability) of 107%, a viability at 24 h, 32 µM ([1]; HaCaT keratinocyte cells, HaCaT, peptide 32 μM, 24 hours, MTT, read-out: Cell survival ability) of 107% and a viability at 24 h, 0.5 µM ([1]; Hs27 fibroblast cells, Hs27, peptide 0.5 μM, 24 hours, MTT, read-out: Cell survival ability) of 92%. For the same compound, the viability at 24 h, 1 µM ([1]; Hs27 fibroblast cells, Hs27, peptide 1 μM, 24 hours, MTT, read-out: Cell survival ability) was 92%, the viability at 24 h, 2 µM ([1]; Hs27 fibroblast cells, Hs27, peptide 2 μM, 24 hours, MTT, read-out: Cell survival ability) was 94% and the viability at 24 h, 4 µM ([1]; Hs27 fibroblast cells, Hs27, peptide 4 μM, 24 hours, MTT, read-out: Cell survival ability) was 91%. For the same compound, the viability at 24 h, 8 µM ([1]; Hs27 fibroblast cells, Hs27, peptide 8 μM, 24 hours, MTT, read-out: Cell survival ability) was 89%, the viability at 24 h, 16 µM ([1]; Hs27 fibroblast cells, Hs27, peptide 16 μM, 24 hours, MTT, read-out: Cell survival ability) was 93% and the viability at 24 h, 32 µM ([1]; Hs27 fibroblast cells, Hs27, peptide 32 μM, 24 hours, MTT, read-out: Cell survival ability) was 97%. It also gave a Minimal inhibitory concentration (E. coli ATCC 25922; E. coli ATCC 25922, MHB, 18 hours at 37° C.) of 16 µM (≈ 33.4 µg/mL) and a Minimal inhibitory concentration (P. aeruginosa ATCC 27853; P. aeruginosa ATCC 27853, MHB, 18 hours at 37° C.) of 8 µM (≈ 16.7 µg/mL).

Compound CC[C@H](C)[C@H](NC(=O)[C@H](CCCNC(=N)N)NC(=O)[C@H](CCC(N)=O)NC(=O)[C@@H](NC(=O)[C@@H](NC(=O)[C@H](CCCNC(=N)N)NC(=O)[C@H](CCCCN)NC(=O)[C@H](Cc1ccccc1)NC(=O)[C@H](CCC(=O)O)NC(=O)[C@@H](N)CCCCN)[C@@H](C)CC)C(C)C)C(=O)N[C@@H](CCCCN)C(=O)N[C@@H](CCCCN)C(=O)N[C@@H](Cc1ccccc1)C(=O)N[C@@H](CC(C)C)C(=O)N[C@@H](CCCNC(=N)N)C(=O)N[C@@H](CC(N)=O)C(N)=O [LL37-3, KEFKRIVQRIKKFLRN-NH2] (H-KEFKRIVQRIKKFLRN-NH2; N-terminus assumed) has a Minimal inhibitory concentration (A. baumannii #5; #5) of 4 µM (≈ 8.41 µg/mL), a Minimal inhibitory concentration (A. baumannii #9; #9) of 2 µM (≈ 4.21 µg/mL) and a Minimal inhibitory concentration (A. baumannii #10; #10) of 2 µM (≈ 4.21 µg/mL). For the same compound, the Minimal inhibitory concentration (A. baumannii #3; #3) was 4 µM (≈ 8.41 µg/mL), the Minimal inhibitory concentration (A. baumannii #11; #11) was 2 µM (≈ 4.21 µg/mL) and the Minimal inhibitory concentration (A. baumannii #4; #4) was 4 µM (≈ 8.41 µg/mL). For the same compound, the Minimal inhibitory concentration (A. baumannii #19; #19) was 4 µM (≈ 8.41 µg/mL), the Minimal inhibitory concentration (A. baumannii #8; #8) was 2 µM (≈ 4.21 µg/mL) and the Minimal inhibitory concentration (A. baumannii #13; #13) was 2 µM (≈ 4.21 µg/mL). It also gave a Minimal inhibitory concentration (A. baumannii KCTC 2508; KCTC 2508, 18 h) of 16 µM (≈ 33.6 µg/mL), a Minimal inhibitory concentration (A. baumannii #12; #12) of 4 µM (≈ 8.41 µg/mL) and a Minimal inhibitory concentration (A. baumannii #2; #2) of 4 µM (≈ 8.41 µg/mL). It also gave a viability at 24 h, 0.5 µM ([1]; HaCaT keratinocyte cells) of 96%, a viability at 24 h, 1 µM ([1]; HaCaT keratinocyte cells) of 100% and a viability at 24 h, 2 µM ([1]; HaCaT keratinocyte cells) of 101%. It also gave a viability at 24 h, 4 µM ([1]; HaCaT keratinocyte cells) of 98%, a viability at 24 h, 8 µM ([1]; HaCaT keratinocyte cells) of 98% and a viability at 24 h, 16 µM ([1]; HaCaT keratinocyte cells) of 104%. It also gave a viability at 24 h, 32 µM ([1]; HaCaT keratinocyte cells) of 104%, a viability at 24 h, 0.5 µM ([1]; Hs27 fibroblast cells) of 94% and a viability at 24 h, 1 µM ([1]; Hs27 fibroblast cells) of 92%. It also gave a viability at 24 h, 2 µM ([1]; Hs27 fibroblast cells) of 93%, a viability at 24 h, 4 µM ([1]; Hs27 fibroblast cells) of 90% and a viability at 24 h, 8 µM ([1]; Hs27 fibroblast cells) of 91%. It also gave a viability at 24 h, 16 µM ([1]; Hs27 fibroblast cells) of 93%, a viability at 24 h, 32 µM ([1]; Hs27 fibroblast cells) of 95% and a Minimal inhibitory concentration (E. coli ATCC 25922; ATCC 25922, 18 h) of 32 µM (≈ 67.3 µg/mL). The Minimal inhibitory concentration (P. aeruginosa ATCC 27853; ATCC 27853, 18 h) was 8 µM (≈ 16.8 µg/mL).

Source: US11452758B2, “Antimicrobial peptide derived from LL37 peptide and uses thereof” (INDUSTRY-ACADEMIC COOPERATION FOUNDATION, CHOSUN UNIVERSITY, priority 2018, dated 2022)
